Data reported in PMC6112376, “Comprehensive Analyses and Prioritization of Tox21 10K Chemicals Affecting Mitochondrial Function by in-Depth Mechanistic Studies” (Environmental Health Perspectives, 2018).

Columns and labels:
HepG2 cells [1] = assay: cells; details: Homo sapiens, HepG2, 1 h
[2] = system: Nrf2/ARE (ARE-bla HepG2 cells); assay: ARE β-lactamase reporter gene assay; type: cell-based, human; details: 16 h incubation; mean±SD of three experiments
hNSC = assay: MMP assay in human neural stem cells (hNSC); type: cell-based; details: Homo sapiens, Neural stem cell; 1 h treatment; fresh re-sourced stocks; mean±SD of three experiments; read-out: hNSC IC50 (MMP)
[3] = system: HeLa cells expressing YFP-Parkin; assay: Parkin translocation assay; type: cell-based, human; details: HeLa cells stably expressing YFP-Parkin; treated for 2 h
rat primary hepatocytes = assay: MMP assay in rat primary hepatocytes; details: for Rat hepatocytes (efficacy) (MMP): % of positive control, mean±SD of three experiments; for IC50: Rattus norvegicus, Hepatocyte, 1 h, read-out: Rat hepatocytes IC50 (MMP)
HepG2 cells [4] = assay: Intracellular ATP content (cell viability) assay; type: cell-based, human; details: Homo sapiens, HepG2, 40 h treatment, mean±SD of three experiments
[5] = system: p53 (p53-bla HCT-116 cells); assay: p53 β-lactamase reporter gene assay; type: cell-based, human; details: 16 h incubation; mean±SD of three experiments
[6] = system: Caenorhabditis elegans (Bristol N2); assay: C. elegans larval development and growth assay; details: 48 h exposure
HepG2 cells [7] = assay: ROS-Glo hydrogen peroxide (ROS) assay; type: cell-based, human; details: Homo sapiens, HepG2; 2 h treatment; mean±SD of three experiments; read-out: ROS (HepG2) EC50
[8] = read-out: HepG2 IC50 Galactose (MMP)
[9] = read-out: HepG2 IC50 Glucose (MMP)
[10] = 5 mM glucose, read-out: ATP (HepG2, glucose) IC50
[11] = 10 mM galactose, read-out: ATP (HepG2, galactose) IC50

Row | Structure (SMILES) | IC50 (HepG2 cells [1]; [8]) [µM] | IC50 (HepG2 cells [1]; [9]) [µM] | ARE (HepG2) EC50 [2] | IC50 (hNSC) [nM] | Parkin recruitment [3] | Rat hepatocytes (efficacy) (MMP) (rat primary hepatocytes) [%] | IC50 (rat primary hepatocytes) [µM] | IC50 (HepG2 cells [4]; [10]) [µM] | IC50 (HepG2 cells [4]; [11]) [µM] | p53 (HCT-116) EC50 [5] | LEC (lowest effect concentration), larval growth assay [6] [µM] | EC50 (HepG2 cells [7]) [µM]
1 | CCc1cc(Cc2cc(CC)cc(C(C)(C)C)c2O)c(O)c(C(C)(C)C)c1 | 6.3 ± 0.43 | 5.42 ± 0.62 | Inactive | 1280 ± 560 | Inactive | −103±17.9 | 29.9 ± 7.25 | 21.6 ± 13.8 | 29.8 ± 7.25 | Inactive | ≤ 10 | 29.6 ± 4.08
2 | Cc1cc(Cc2cc(C)cc(C(C)(C)C)c2O)c(O)c(C(C)(C)C)c1 [2,2′-Methylenebis(4-methyl-6-tert-butylphenol)] | 6.6 ± 1.12 | 5.67 ± 1.02 | Inactive | 880 ± 250 | Inactive | −121±16.7 | 6.89 ± 1.44 | 34.1 ± 3.93 | 34 | Inactive | ≤ 10 | 31.4 ± 10.1
